Patent US9456995B2, “Methods for inhibition of BNIP3 and prevention and treatment of ischemia reperfusion injury by tetra-O-methyl nordihydroguaiaretic acid” (THE JOHNS HOPKINS UNIVERSITY, priority 2012, dated 2016)

Legend:
HL-1 mouse heart cells [1] = experiment: TUNEL assay of cell death induced by hypoxia in HL-1 cells; assay type: cell-based; settings: M4N at 5-20 μM; 6 hour hypoxia (0.5% oxygen) followed with 18 hour normoxia; FIG. 1
Method: Cell Culture. HL-1 mouse heart cell line was a kind gift from Dr. Claycomb (LSU Health Science Centers, New Orleans La.) (Proc. Natl. Acad. Sci. U.S.A., 95: 2979-84 (1998)). HL-1 cells were cultured in Claycomb medium (Sigma, Saint Louis, Mo.) supplemented with FBS (10%), Norepinephrine (0.1 mM), L-Glutamine (2 mM), penicillin (100 units/ml) and streptomycin (100 μg/ml). Drugs were dissolved in dimethyl sulfoxide at the final concentrations in the medium less than 0.1%. When the cells were indicated to be cultured under hypoxic conditions, the cells were incubated at the oxygen concentration of 0.5% in the hypoxic chamber (BioSpherix Ltd, Lacona, N.Y.). Cell death assay. Terminal deoxynucleotidyl transferase dUTP nick end labeling (TUNEL) assay was conducted by using TUNEL apoptosis detection kits (Upstate, Temecula, Calif.), with some modifications. The cells were cultured in 12-well microwell culture dishes (Corning Inc., Corning, N.Y.). After the treatment, both the cells floating in the tissue culture medium and those attached to the bottoms of wells were collected together into plastic tubes. […] For the hypoxia treatment the cells were cultured under 0.5% oxygen concentration in a hypoxic chamber for 6 hours and returned the cells back to normoxic condition in a normal culture chamber, and then cell death was measured 18 hours later. […]

HL-1 mouse heart cells [2] = experiment: Trypan blue exclusion assay of cell death under hypoxia or normoxia in HL-1 cells; assay type: cell-based; settings: M4N at 20 μM, FIG. 2
Method: Cell Culture. HL-1 mouse heart cell line was a kind gift from Dr. Claycomb (LSU Health Science Centers, New Orleans La.) (Proc. Natl. Acad. Sci. U.S.A., 95: 2979-84 (1998)). HL-1 cells were cultured in Claycomb medium (Sigma, Saint Louis, Mo.) supplemented with FBS (10%), Norepinephrine (0.1 mM), L-Glutamine (2 mM), penicillin (100 units/ml) and streptomycin (100 μg/ml). Drugs were dissolved in dimethyl sulfoxide at the final concentrations in the medium less than 0.1%. When the cells were indicated to be cultured under hypoxic conditions, the cells were incubated at the oxygen concentration of 0.5% in the hypoxic chamber (BioSpherix Ltd, Lacona, N.Y.). For the Trypan blue exclusion assay, the cells were washed with PBS (−) once and resuspended in PBS (−) again. […] In about 5 to 15 minutes the numbers of both the cells without staining and the cells with staining were counted. The percentages of the number of the cells with staining to the total cell number (which equals to the number of the cells with staining and that of the cells without staining) were calculated. […] For the hypoxia treatment the cells were cultured under 0.5% oxygen concentration in a hypoxic chamber for 6 hours and returned the cells back to normoxic condition in a normal culture chamber, and then cell death was measured 18 hours later. […]

BNIP3 [3] = experiment: BNIP3 expression by western blotting in HL-1 cells under hypoxia; assay type: cell-based, mouse; settings: M4N at 10-40 μM; hypoxia for 6 hours then normoxia for 18 hours; FIG. 3
Method: Cell Culture. HL-1 mouse heart cell line was a kind gift from Dr. Claycomb (LSU Health Science Centers, New Orleans La.) (Proc. Natl. Acad. Sci. U.S.A., 95: 2979-84 (1998)). HL-1 cells were cultured in Claycomb medium (Sigma, Saint Louis, Mo.) supplemented with FBS (10%), Norepinephrine (0.1 mM), L-Glutamine (2 mM), penicillin (100 units/ml) and streptomycin (100 μg/ml). Drugs were dissolved in dimethyl sulfoxide at the final concentrations in the medium less than 0.1%. When the cells were indicated to be cultured under hypoxic conditions, the cells were incubated at the oxygen concentration of 0.5% in the hypoxic chamber (BioSpherix Ltd, Lacona, N.Y.). Western blotting. After cells had been grown in […] flasks and treated with reagents, the cells were washed with PBS (−) three times and suspended in RIPA buffer (150 mM NaCl, 50 mM Tris-HCl (pH 8.0), 0.1% SDS, 1% NP40, and 0.5% deoxycholate) supplemented with protease inhibitor cocktail (Calbiochem, San Diego, Calif.). The sample volumes were adjusted by the total protein amount. Protein assay was performed by Bio-Rad Protein Assay (Bio-Rad Laboratories, Inc. Hercules, Calif.). […] The signals were detected by western blot chemiluminescence reagent plus (New England Nuclear Life Science Products, Boston, Mass.). […]

[4] = test system: mitochondrial permeability transition pore (mPTP); experiment: Mitochondrial permeability transition pore (mPTP) openings by confocal microscopy in HL-1 cells; assay type: cell-based, mouse; settings: M4N at 5-20 μM, hypoxia 6 hours then normoxia 8 hours, data not shown
Method: Measurement of mitochondrial permeability transition pore (mPTP) openings. The mPTP was measured by Image-iT LIVE Mitochondria Transition Pore Assay Kit (Molecular Probes, Eugene Oreg.). The cells were first washed with Hank's Balanced Salt Solution (HBSS) with sodium bicarbonate, calcium, and magnesium that also included HEPES (10 mM), L-glutamine (2 mM) and succinate (100 μM) to support healthy mitochondrial function (modified HBSS). The cells were then labeled with calcein-AM (1.0 μM) and MitoTracker Red CMSRos dye ([…]) in modified HBSS with […] CoCl2 for 15 minutes. After the medium was changed to the normal HL-1 culture medium, the cells were treated with M4N at various concentrations (0, 5, 10, 20, 40, and 80 μM). The cells were incubated under hypoxia for 6 hours, followed with under normoxia for 8 hours. After the cells were washed with modified HBSS, they were examined by B29/Zeiss LSM 510 META laser confocal microscope (Carl Zeiss, Jena, Germany) for calcein at FITC settings and for MitoTracker at rhodamine settings.

HL-1 mouse heart cells [5] = experiment: UCN-01-induced cell death in HL-1 cells, Trypan blue exclusion assay; assay type: cell-based; settings: M4N around 20 μM; UCN-01 (0.2 μM) for 24 hours; FIG. 4
Method: FIG. 4 depicts the effect of M4N on cell death induced by UCN-01 treatment in HL-1 mouse heart cells. The cells were treated with M4N followed with UCN-01 (0.2 μM) treatment for 24 hours. The cell death was measured with Trypan Blue exclusion assay. The asterisk indicates a statistically significant difference by t-test at the error rate of less than 2%. For the Trypan blue exclusion assay, the cells were washed with PBS (−) once and resuspended in PBS (−) again. One part of the resuspended cell solution was mixed with one part of 0.4% Trypan blue solution (Sigma). In about 5 to 15 minutes the numbers of both the cells without staining and the cells with staining were counted. The percentages of the number of the cells with staining to the total cell number (which equals to the number of the cells with staining and that of the cells without staining) were calculated. Effect of M4N on UCN-01-inducing cell death. Next, the effect of M4N on the cell death induced by UCN-01, an anticancer drug, in HL-1 cells (FIG. 4) was examined.

BNIP3 [6] = experiment: BNIP3 expression in human cancer cells (LNCaP, PC3, MCF-7, HepG2); assay type: cell-based
LNCAP cells = experiment: Mitochondrial metabolism and membrane potential in LNCaP cells; assay type: cell-based, human; settings: data not shown
[7] = numerous clinical trials as an anticancer drug; cited from earlier work

For `COc1ccc(C[C@@H](C)[C@@H](C)Cc2ccc(OC)c(OC)c2)cc1OC` [M4N, tetra-o-methyl nordihydroguaiaretic acid], the “TUNEL-positive cell death induced by hypoxia” value (HL-1 mouse heart cells [1]) was “reduced the cell death induced by hypoxia”, the “cell death induced by hypoxia, Trypan blue exclusion assay” value (HL-1 mouse heart cells [2]; either 6 hour hypoxia with additional 18 hour normoxia or 24 hour hypoxia) was “reduced the cell death induced by hypoxia” and the “cell death under normoxic condition, Trypan blue exclusion assay” value (HL-1 mouse heart cells [2]; normoxic condition, compared with the control) was “reduced cell death compared with the control”. The “BNIP3 expression (western blotting)” value (BNIP3 [3]) was “suppressed”, the “mPTP openings induced by hypoxia” value [4] was “suppressed mPTP openings induced by hypoxia” and the “UCN-01-mediated cell death, Trypan blue exclusion assay” value (HL-1 mouse heart cells [5]) was “reduced UCN-01-mediated cell death”. The “BNIP3 expression at the transcription level” value (BNIP3 [6]; LNCaP human prostate cancer cells, internal data not shown) was “blocks BNIP3 expression”, the “expression of BNIP3 in various cancer cells” value (BNIP3 [6]; LNCaP, PC3, MCF-7, HepG2 cells, previously found) was “reduced the expression of BNIP3” and the “mitochondrial membrane potential (ΔΨm)” value (LNCAP cells) was “induce hyperpolarization of ΔΨm”. For the same molecule, the mitochondrial metabolism (LNCAP cells) was “suppress mitochondrial metabolism” and the “toxicity and safety in clinical trials” value [7] was “very nontoxic and safe drug”.
